The values below come from US7129379B2, “3-amino-propoxphenyl derivatives (l)” (William John Louis, Austin and Repatriation Medical Centre, priority 1996, dated 2006).

Data set [1] can be described thus: Duration of beta blockade after intravenous infusion in conscious rats (heart rate response to isoprenaline). Format: in vivo, Sprague-Dawley rats. As to conditions: Sprague-Dawley, rat, plasma, iv; conscious male rats, after stopping i.v. infusion; time for inhibition of isoprenaline heart rate response to fall by 50%; read-out: Estimated Plasma Half Life. The protocol: (§1) Healthy male Sprague-Dawley rats were prepared under anaesthesia with indwelling catheters in the carotid artery and jugular vein and allowed to recover for at least 24 h. On the day of the experiment, the arterial catheter was attached to a flexible swivel and then to a pressure transducer for the continuous recording of heart rate and blood pressure. The venous catheters were attached to an infusion pump for drug administration or to a syringe for bolus injections of isoprenaline ([…]). The catheters were suspended out of the animal's way and the rat was allowed to move freely in a small covered enclosure isolated from outside disturbance. When the BP and HR were stable isoprenaline boluses were given at intervals of 10 minutes until the maximum responses in HR were reproducible (±10%). The doses were repeated for at least 40 minutes and the last 5 readings were considered to constitute the baseline response. The doses were continued at the same interval throughtout the test period of a further 150 minutes. Approximately 3.5 minutes before the next dose of isoprenaline the infusion of the test compound was started, to allow for dead volume in the infusion line, and continued for a further 33.5 minutes.
(§2) Rats were used for more than one experiment if their catheters remained patent with daily flushing with heparinised saline, but at least 24 hours separated each experiment.
(§3) Thus rats with the left carotid artery and left jugular vein cannulated can be studied in the conscious state. This allows continuous recording of heart rate and blood pressure before and after intravenous infusions of beta blocking drugs in selected doses. The duration of beta blockade following cessation of an intravenous infusion of a beta blocking drug can be followed by studying the time taken for the increase in heart rate produced by a standard dose of isoprenaline to return to control values following cessation of the beta blocking drug infusion. The maximum recorded inhibition of the heart rate response to isoprenaline during the infusion of the test drug is estimated, and the pharmacodynamic half-life is the time taken for this inhibition to fall by 50% following the cessation of infusion of the drug.
(§4) The half-life of action of the compounds in the systemic circulation as determined as described above in vivo in rats is indicated in Table 3.

Data set [2] concerns the target T1, β2 adrenoreceptor (guinea-pig trachea) (Cavia porcellus, UniProt Q8K4Z4).
T1 construct: five rings 1–2 mm in width are cut from the trachea; from tissue; host or cells: isolated guinea-pig tracheal rings (organ bath)
Briefly: Isoprenaline relaxation of carbachol-contracted isolated guinea-pig trachea (pA2). As to conditions: isolated guinea-pig tracheal rings, carbachol 10^-6 M contraction, 37° C.; for Kb: read-out: Guinea Pig, pA2 Trachea, B2 (converted). From the text: (§5) Tissue preparation: The animals are killed by a rapid blow to the head followed by cervical dislocation. The chest is opened and the heart and trachea removed and placed in carbonated Krebs-Ringer-Bicarbonate solution (Krebs). Blood is carefully massaged from the chambers of the heart (see L. H. Tung, G. P. Jackman, B. Campbell, S. Louis, D. Iakovidis & W J Louis, J. Cardiovasc. Pharmacol, 21, (2), 484–488, 1993).
All extraneous tissue is dissected away and five rings 1–2 mm in width are cut from the trachea and mounted in sequence on loose loops. The rings are suspended from an isometric transducer set at a resting force of 1.0 g. The rings are then incubated in an organ bath at 37° C. in oxygenated (5% Carbogen) Krebs with 3 changes of Krebs every 10 min for 50 min. Carbachol 10^−6 M is then added to the bath to induce a contraction. Once the contractile force is stable, relaxation is induced by addition of increasing doses of isoprenaline (10^−8 to 10^−5 M) to produce the control dose-response curve. The tissue is then washed in three changes of Krebs every 10 min for 50 min before addition of the drug. After 10 minutes incubation carbachol is added once more and a fresh dose-response to isoprenaline measured. After a further wash of 50 min the control curve is repeated.
(§6) The data is used to calculate the pA2 values against atria and trachea (see Mackay, J. Pharm. Pharmacol., 30, 312–313, 1978). […] The ratio of the values indicates the selectivity of each compound.

The subject of data set [3] is β1 adrenoreceptor (guinea-pig atria). Briefly: Isoprenaline dose-response in isolated guinea-pig atria (pA2). As to conditions: β1 (atria) versus β2 (trachea), from the pA2 values.
From the text: as §5
(§7) All extraneous tissue is carefully dissected from the heart, and the atria is dissected from the ventricles. A suture with a loop is tied to each atrium and used to suspend the tissue from an organ bath rod. The other loop is attached to a force transducer loaded with 1 g force. The atria are then maintained in the bath with oxygenated (5% Carbogen) Krebs at 37° C. with changes of Krebs at 10 minute intervals for 50 min. Isoprenaline dose response curves are then measured by addition of isoprenaline in increasing doses from 10^−11 M until a plateau in the response is observed (ca 10^−5.5 M). Doses are increased at two minute intervals and maximum force of contraction and heart rate are recorded. At the end of the dose response curve, the organ bath is flushed with fresh Krebs and washed three times every 10 minutes for 50 minutes. The dose of test drug is then added to the organ bath and allowed to equilibrate for 10 minutes. The isoprenaline does-response curve is then repeated. After washing the atria with Krebs for a further 50 minutes as before, the control does-response curve is repeated in the absence of drug.
as §6

Data set [4] has as its target T2, β1 adrenoreceptor (guinea-pig atria) (Cavia porcellus, UniProt H0W3H1).
T2 construct: the atria is dissected from the ventricles; from tissue; host or cells: isolated guinea-pig atria (organ bath)
The description is as above. The conditions noted are these: isolated guinea-pig atria, antagonism of isoprenaline, 37° C.; for Kb: read-out: Guinea Pig, pA2 Atria, B1 (converted).
From the text: as §5, §7, §6

The subject of data set [5] is heart rate response to isoprenaline. Briefly: Duration of beta blockade after intravenous infusion in conscious rats (heart rate response to isoprenaline). Format: in vivo, Sprague-Dawley rats. As to conditions: conscious male rats, after stopping i.v. infusion; time for inhibition of isoprenaline heart rate response to fall by 50%. How it is done: as §1, §2, §3, §4

Some results are limits rather than exact numbers.

T2 sequence (H0W3H1 1-470): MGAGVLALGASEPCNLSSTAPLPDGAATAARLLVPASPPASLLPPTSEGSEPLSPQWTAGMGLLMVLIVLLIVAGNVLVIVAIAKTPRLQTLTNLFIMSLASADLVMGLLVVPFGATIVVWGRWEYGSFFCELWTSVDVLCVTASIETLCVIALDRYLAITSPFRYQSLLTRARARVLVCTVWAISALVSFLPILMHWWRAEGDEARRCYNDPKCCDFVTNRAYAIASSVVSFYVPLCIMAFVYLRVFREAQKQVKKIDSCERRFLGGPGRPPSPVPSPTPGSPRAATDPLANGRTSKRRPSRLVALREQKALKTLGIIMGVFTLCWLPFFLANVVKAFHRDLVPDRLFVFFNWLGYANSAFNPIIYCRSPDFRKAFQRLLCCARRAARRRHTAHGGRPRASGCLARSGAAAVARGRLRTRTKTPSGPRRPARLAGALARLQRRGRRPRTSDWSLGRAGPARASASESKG
T1 sequence (Q8K4Z4 whole entry): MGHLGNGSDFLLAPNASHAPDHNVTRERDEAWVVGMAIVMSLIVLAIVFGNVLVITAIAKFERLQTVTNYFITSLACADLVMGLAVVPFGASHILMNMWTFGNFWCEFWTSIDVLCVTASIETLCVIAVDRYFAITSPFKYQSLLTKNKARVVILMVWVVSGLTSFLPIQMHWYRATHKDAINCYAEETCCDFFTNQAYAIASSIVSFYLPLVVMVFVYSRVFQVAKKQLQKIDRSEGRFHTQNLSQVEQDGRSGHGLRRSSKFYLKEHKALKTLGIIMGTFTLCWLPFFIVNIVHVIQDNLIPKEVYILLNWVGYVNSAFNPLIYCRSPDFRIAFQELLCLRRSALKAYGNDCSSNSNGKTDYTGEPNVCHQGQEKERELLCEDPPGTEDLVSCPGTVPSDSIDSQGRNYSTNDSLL

`CCOCCOc1ccc(OCC(O)CNCCc2ccc(OC)c(OC)c2)cc1` (racemic) [Example 7, 1-(4-(2-ethoxyethoxy)phenoxy)-2-hydroxy-3-(2-(3,4-dimethoxyphenyl)ethylamino)propane] had a melting point of 140 to 143 °C. Besides, the half-life in data set [1] is ~10 min. Moreover, the Kb in data set [2] was > 31600 nM. For the same compound, the Selectivity in data set [3] is reported as >501. Further, the Kb in data set [4] was 63.1 nM.
For `COc1ccc(CCNCC(O)COc2ccc(OCCOCC3CC3)cc2C#N)cc1OC` (racemic) [Example 4, 1-(2-cyano-4-(2-cyclopropylmethoxyethoxy)phenoxy)-2-hydroxy-3-(2-(3,4-dimethoxyphenyl)ethylamino)propane], in that order: 84 to 86 °C, ~15 min, 39800 nM, 794 and 50.1 nM.
For `COCCOc1ccc(OCC(O)CNCCOc2ccc(OC)cc2)cc1` (racemic) [Example 5, 1-(4-(2-methoxyethoxy)phenoxy)-2-hydroxy-3-(2-(4-methoxyphenoxy)ethylamino)propane], in that order: 113 to 115 °C, 10 to 20 min, 50100 nM, 501 and 100 nM.
For `COc1ccc(OCCNCC(O)COc2ccc(OCCOCC(C)C)cc2C#N)cc1` (racemic) [Example 2, 1-(2-cyano-4-(2-(2-methylpropoxy)ethoxy)phenoxy)-2-hydroxy-3-(2-(4-methoxyphenoxy)ethylamino)propane], in that order: 69 to 71 °C, ~17 min, 39800 nM, 1000 and 39.8 nM.
Consider `CCOCCOc1ccc(OC[C@@H](O)CNCCc2ccc(OC)c(OC)c2)cc1` [Example 1, S(−)-1-(4-(2-ethoxyethoxy)phenoxy)-2-hydroxy-3-(2-(3,4-dimethoxyphenyl)ethylamino)propane], for which the “Estimated Plasma Half Life” value in data set [5] was 10 to 20 min. In data set [2], the “Guinea Pig, pA2 Trachea, B2” value is 4.3. The same compound showed a Selectivity in data set [3] of 2512. In addition, the “Guinea Pig, pA2 Atria, B1” value in data set [4] amounted to 7.7.
